Source: US5026832A, “9-dihydro-9-O-alkyldesmycosin derivatives” (Toyo Jozo Co., Ltd., priority 1988, dated 1991)
Converted amounts (≈) assume the structure as drawn. Like-named read-outs stand apart in the source and are kept apart here.

How the values were obtained:
[1] = test system: Staphylococcus pyogenes S-23; assay: Infectious disease curing effect by oral administration in infected mice; type: in vivo, ICR male mice; details: Staphylococcus aureus
Method: A pre-incubated test microorganism, Staphylococcus pyogenes S-23, was suspended in a 5% mucin solution and inoculated into the ICR male mice (8 mice per group) abdomen in an amount of 2×10^2. After 1 hour, Compounds (I) of the present invention dissolved or suspended in a phosphate buffer were orally administered to the mice. The mice were inspected for 5 days to determine ED50 (mg/kg) by the Van der Waerden method.

[2] = test system: Staphylococcus aureus Smith; assay: Antimicrobial activity (minimum inhibitory concentration); type: cell-based; details: about 10^6 /ml
Method: (§1) Minimum inhibitory concentrations (MIC, μg/ml) of various compounds of formula (I) against various microorganisms (about 10^6 /ml) were measured.

[3] = test system: Staphylococcus aureus FDA 209P JC-1; assay: as above; type: cell-based; details: FDA209P; Staphylococcus aureus FDA 209P JC-1, about 10^6 /ml
Method: as §1

[4] = test system: Staphylococcus pyogenes S-23; assay: as above; type: cell-based; details: Staphylococcus aureus, S23; Staphylococcus pyogenes S-23, about 10^6 /ml
Method: as §1

[5] = test system: Staphylococcus pyogenes N.Y.5; assay: as above; type: cell-based; details: Staphylococcus pyogenes N.Y.5, about 10^6 /ml
Method: as §1

[6] = test system: Staphylococcus epidermidis sp-al-1; assay: as above; type: cell-based; details: SPAL1; Staphylococcus epidermidis sp-al-1, about 10^6 /ml
Method: as §1

[7] = test system: Staphylococcus aureus MS 353; assay: as above; type: cell-based; details: MS353; Staphylococcus aureus MS 353, about 10^6 /ml
Method: as §1

[8] = test system: Staphylococcus aureus MS 353 C36; assay: as above; type: cell-based; details: MS353C36; Staphylococcus aureus MS 353 C36, about 10^6 /ml
Method: as §1

[9] = test system: Staphylococcus pyogenes 1022; assay: as above; type: cell-based; details: Staphylococcus pyogenes 1022, about 10^6 /ml
Method: as §1

[10] = S23, 120 h, oral, 1 hour after abdominal inoculation of Staphylococcus pyogenes S-23, inspected for 5 days, Van der Waerden method, read-out: ED50

| Structure (SMILES) | ED50 [1, 10] | MIC [2] | MIC [3] | MIC [4] | MIC [5] | MIC [6] | MIC [7] | MIC [8] | MIC [9] | ED50 ([1]; S23, po, 120 h) |
| --- | --- | --- | --- | --- | --- | --- | --- | --- | --- | --- |
| CCC1OC(=O)CC(O)C(C)C(OC2OC(C)CC(N(C)C)C2O)C(CC=O)CC(C)C(=O)C=CC(C)=CC1COC1OC(C)C(O)C(OC)C1OC (centres unmarked) [4'-Deoxydesmycosin, reference compound] | > 200 mg/kg | – | – | – | – | – | – | – | – | – |
| CCC1OC(=O)CC(O)C(C)C(OC2OC(C)C(O)C(N(C)C)C2O)C(CC=O)CC(C)C(OC)C=CC(C)=CC1COC1OC(C)C(O)C(OC)C1OC (centres unmarked) [Compound 1, 9-dihydro-9-O-methyldesmycosin] | 100 to 200 mg/kg | 0.39 µg/mL (≈ 0.495 µM) | 0.1 µg/mL (≈ 0.127 µM) | ≤ 0.05 µg/mL | ≤ 0.05 µg/mL | ≤ 0.05 µg/mL | 0.2 µg/mL (≈ 0.254 µM) | 0.2 µg/mL (≈ 0.254 µM) | – | – |
| CCOC1C=CC(C)=CC(COC2OC(C)C(O)C(OC)C2OC)C(CC)OC(=O)CC(O)C(C)C(OC2OC(C)C(O)C(N(C)C)C2O)C(CC=O)CC1C (centres unmarked) [Compound 2, 9-dihydro-9-O-ethyldesmycosin] | – | 0.2 µg/mL (≈ 0.249 µM) | 0.1 µg/mL (≈ 0.125 µM) | ≤ 0.05 µg/mL | ≤ 0.05 µg/mL | 0.1 µg/mL (≈ 0.125 µM) | 0.2 µg/mL (≈ 0.249 µM) | 0.1 µg/mL (≈ 0.125 µM) | > 100 µg/mL | – |
| CCCOC1C=CC(C)=CC(COC2OC(C)C(O)C(OC)C2OC)C(CC)OC(=O)CC(O)C(C)C(OC2OC(C)C(O)C(N(C)C)C2O)C(CC=O)CC1C (centres unmarked) [Compound 3, 9-dihydro-9-O-propyldesmycosin] | – | 0.39 µg/mL (≈ 0.478 µM) | 0.1 µg/mL (≈ 0.123 µM) | 0.1 µg/mL (≈ 0.123 µM) | ≤ 0.05 µg/mL | 0.2 µg/mL (≈ 0.245 µM) | 0.2 µg/mL (≈ 0.245 µM) | 0.2 µg/mL (≈ 0.245 µM) | > 100 µg/mL | – |
| CCCCOC1C=CC(C)=CC(COC2OC(C)C(O)C(OC)C2OC)C(CC)OC(=O)CC(O)C(C)C(OC2OC(C)C(O)C(N(C)C)C2O)C(CC=O)CC1C (centres unmarked) [Compound 4, 9-dihydro-9-O-butyldesmycosin] | – | 0.78 µg/mL (≈ 0.94 µM) | 0.39 µg/mL (≈ 0.47 µM) | 0.2 µg/mL (≈ 0.241 µM) | 0.1 µg/mL (≈ 0.12 µM) | 0.39 µg/mL (≈ 0.47 µM) | 0.39 µg/mL (≈ 0.47 µM) | 0.39 µg/mL (≈ 0.47 µM) | > 100 µg/mL | – |
| CCCOC1C=CC(C)=CC(COC2OC(C)C(O)C(OC)C2OC)C(CC)OC(=O)CC(OC(C)=O)C(C)C(OC2OC(C)C(O)C(N(C)C)C2O)C(CC=O)CC1C (centres unmarked) [Compound 9, 9-dihydro-9--O-propyl-3-O-acetyldesmycosin] | – | 0.78 µg/mL (≈ 0.909 µM) | 0.39 µg/mL (≈ 0.455 µM) | 0.2 µg/mL (≈ 0.233 µM) | 0.2 µg/mL (≈ 0.233 µM) | 0.78 µg/mL (≈ 0.909 µM) | 0.39 µg/mL (≈ 0.455 µM) | 0.78 µg/mL (≈ 0.909 µM) | > 100 µg/mL | – |
| CCOC1C=CC(C)=CC(COC2OC(C)C(O)C(OC)C2OC)C(CC)OC(=O)CC(OC(=O)CC)C(C)C(OC2OC(C)C(O)C(N(C)C)C2O)C(CC=O)CC1C (centres unmarked) [Compound 10, 9-dihydro-9-O-ethyl-3-O-propionyldesmycosin] | – | 0.78 µg/mL (≈ 0.909 µM) | 0.2 µg/mL (≈ 0.233 µM) | 0.39 µg/mL (≈ 0.455 µM) | 0.1 µg/mL (≈ 0.117 µM) | 0.78 µg/mL (≈ 0.909 µM) | 0.39 µg/mL (≈ 0.455 µM) | 0.39 µg/mL (≈ 0.455 µM) | > 100 µg/mL | – |
| CCCOC1C=CC(C)=CC(COC2OC(C)C(O)C(OC)C2OC)C(CC)OC(=O)CC(OC(=O)CC)C(C)C(OC2OC(C)C(O)C(N(C)C)C2O)C(CC=O)CC1C (centres unmarked) [Compound 11, 9-dihydro-9-O-propyl-3-O-propionyldesmycosin] | – | 0.78 µg/mL (≈ 0.894 µM) | 0.2 µg/mL (≈ 0.229 µM) | 0.2 µg/mL (≈ 0.229 µM) | 0.1 µg/mL (≈ 0.115 µM) | 0.39 µg/mL (≈ 0.447 µM) | 0.2 µg/mL (≈ 0.229 µM) | 0.39 µg/mL (≈ 0.447 µM) | 100 µg/mL (≈ 115 µM) | – |
| CCC1OC(=O)CC(OC(C)=O)C(C)C(OC2OC(C)C(O)C(N(C)C)C2O)C(CC=O)CC(C)C(OC)C=CC(C)=CC1COC1OC(C)C(O)C(OC)C1OC (centres unmarked) [Compound 12, 9-dihydro-9-O-methyl-3-O-acetyldesmycosin] | – | 0.39 µg/mL (≈ 0.47 µM) | 0.2 µg/mL (≈ 0.241 µM) | 0.1 µg/mL (≈ 0.12 µM) | 0.1 µg/mL (≈ 0.12 µM) | 0.39 µg/mL (≈ 0.47 µM) | 0.2 µg/mL (≈ 0.241 µM) | 0.2 µg/mL (≈ 0.241 µM) | > 100 µg/mL | – |
| CCC1OC(=O)CC(OC(C)=O)C(C)C(OC2OC(C)CC(N(C)C)C2O)C(CC=O)CC(C)C(OC)C=CC(C)=CC1COC1OC(C)C(O)C(OC)C1OC (centres unmarked) [Compound 13, 9-dihydro-9-O-methyl-3-O-acetyl-4'-deoxydesmycosin] | – | 0.39 µg/mL (≈ 0.479 µM) | 0.2 µg/mL (≈ 0.246 µM) | 0.1 µg/mL (≈ 0.123 µM) | 0.1 µg/mL (≈ 0.123 µM) | 0.39 µg/mL (≈ 0.479 µM) | 0.2 µg/mL (≈ 0.246 µM) | 0.2 µg/mL (≈ 0.246 µM) | > 100 µg/mL | – |
| CCC1OC(=O)CC(O)C(C)C(OC2OC(C)C(O)C(N(C)C)C2O)C(CC=O)CC(C)C(OCC2CC2)C=CC(C)=CC1COC1OC(C)C(O)C(OC)C1OC (centres unmarked) [Compound 14, 9-dihydro-9-O-cyclopropylmethyldesmycosin] | – | 0.39 µg/mL (≈ 0.471 µM) | 0.2 µg/mL (≈ 0.242 µM) | ≤ 0.05 µg/mL | 0.1 µg/mL (≈ 0.121 µM) | 0.2 µg/mL (≈ 0.242 µM) | 0.2 µg/mL (≈ 0.242 µM) | 0.2 µg/mL (≈ 0.242 µM) | > 100 µg/mL | – |
| CCC1OC(=O)CC(O)C(C)C(OC2OC(C)C(O)C(N(C)C)C2O)C(CC=O)CC(C)C(OCC2CCC2)C=CC(C)=CC1COC1OC(C)C(O)C(OC)C1OC (centres unmarked) [Compound 15, 9-dihydro-9-O-cyclobutylmethyldesmycosin] | – | 0.78 µg/mL (≈ 0.926 µM) | 0.39 µg/mL (≈ 0.463 µM) | 0.2 µg/mL (≈ 0.238 µM) | ≤ 0.05 µg/mL | 0.78 µg/mL (≈ 0.926 µM) | 0.39 µg/mL (≈ 0.463 µM) | 0.39 µg/mL (≈ 0.463 µM) | 50 µg/mL (≈ 59.4 µM) | – |
| CCC1OC(=O)CC(O)C(C)C(OC2OC(C)C(O)C(N(C)C)C2O)C(CC=O)CC(C)C(OCC2CCCCC2)C=CC(C)=CC1COC1OC(C)C(O)C(OC)C1OC (centres unmarked) [Compound 16, 9-dihydro-9-O-cyclohexylmethyldesmycosin] | – | 1.56 µg/mL (≈ 1.79 µM) | 0.78 µg/mL (≈ 0.896 µM) | 0.39 µg/mL (≈ 0.448 µM) | 0.39 µg/mL (≈ 0.448 µM) | 1.56 µg/mL (≈ 1.79 µM) | 0.39 µg/mL (≈ 0.448 µM) | 0.78 µg/mL (≈ 0.896 µM) | 50 µg/mL (≈ 57.5 µM) | – |
| CCC1OC(=O)CC(O)C(C)C(OC2OC(C)C(O)C(N(C)C)C2O)C(CC=O)CC(C)C(OCC(C)C)C=CC(C)=CC1COC1OC(C)C(O)C(OC)C1OC (centres unmarked) [Compound 17, 9-dihydro-9-O-isobutyldesmycosin] | – | 0.78 µg/mL (≈ 0.94 µM) | 0.39 µg/mL (≈ 0.47 µM) | 0.2 µg/mL (≈ 0.241 µM) | 0.1 µg/mL (≈ 0.12 µM) | 0.39 µg/mL (≈ 0.47 µM) | 0.39 µg/mL (≈ 0.47 µM) | 0.39 µg/mL (≈ 0.47 µM) | > 100 µg/mL | – |
| CCC1OC(=O)CC(O)C(C)C(OC2OC(C)C(O)C(N(C)C)C2O)C(CC=O)CC(C)C(OCc2ccccc2)C=CC(C)=CC1COC1OC(C)C(O)C(OC)C1OC (centres unmarked) [Compound 18, 9-dihydro-9-O-benzyldesmycosin] | – | 0.39 µg/mL (≈ 0.451 µM) | 0.2 µg/mL (≈ 0.231 µM) | 0.1 µg/mL (≈ 0.116 µM) | 0.1 µg/mL (≈ 0.116 µM) | 0.39 µg/mL (≈ 0.451 µM) | 0.2 µg/mL (≈ 0.231 µM) | 0.2 µg/mL (≈ 0.231 µM) | 100 µg/mL (≈ 116 µM) | – |
| CCC1OC(=O)CC(O)C(C)C(OC2OC(C)C(O)C(N(C)C)C2O)C(CC=O)CC(C)C(=O)C=CC(C)=CC1COC1OC(C)C(O)C(OC)C1OC (centres unmarked) [Desmycosin, 4'-demycarosyltylosin] | – | 0.39 µg/mL (≈ 0.505 µM) | 0.2 µg/mL (≈ 0.259 µM) | ≤ 0.05 µg/mL | ≤ 0.05 µg/mL | 0.2 µg/mL (≈ 0.259 µM) | 0.2 µg/mL (≈ 0.259 µM) | 0.2 µg/mL (≈ 0.259 µM) | > 100 µg/mL | – |
| CC[C@H]1OC(=O)C[C@@H](O)[C@H](C)[C@@H](O[C@@H]2O[C@H](C)[C@@H](O[C@H]3C[C@@](C)(O)[C@@H](O)[C@H](C)O3)[C@H](N(C)C)[C@H]2O)[C@@H](CC=O)C[C@@H](C)C(=O)/C=C/C(C)=C/[C@@H]1CO[C@@H]1O[C@H](C)[C@@H](O)[C@@H](OC)[C@H]1OC [Tylosin, reference compound] | – | – | – | – | – | – | – | – | – | > 200 mg/kg |
